# Molecular target: T1, rat GABA-A receptor (alpha1, beta2, gamma2L) (Rattus norvegicus, UniProt P18508+P62813+P63138, INS375LLRMFSFK)
# T1 construct: expressed in transfected cells; host or cells: Xenopus laevis oocytes (mRNA injection)
# Test: Chloride flux (current) in recombinant GABA-A receptors expressed in Xenopus laevis oocytes, voltage clamp
# Type: cell-based
# Conditions: chloride flux induced by GABA alone
# Text: Studies of Chloride Flux in Recombinant GABA-A Receptors (Alpha1, Beta2, Gama2L) Expressed in Xenopus laevis Oocytes Using Voltage Clamp Methods.
# The GABA-A receptor used to test the steroids in the present invention was recombinantly expressed in oocytes of Xenopus laevis. The oocytes have a large capacity to express proteins for the surface membrane from mRNA injected into the oocyte. The receptor contains five proteins of three different types and the mRNA for the receptor subtypes alpha1, beta2, gamma2L were expressed in the present test situation. These subtypes of the GABA-A receptor are the most common in the central nervous system. These GABA-A receptors contain two alpha1 proteins, two beta2 and one gamma protein. After 48 hours of incubation the GABA-A receptors are mounted in the membrane and behave in vitro in a similar way as the receptor in situ. Therefore this model system is considered by persons skilled in art to be a good in vitro test system for GABA-A receptor active drugs. The flux of chloride through the chloride channel is a result of GABA activity on the GABA-A receptor and GABA-A receptor modulators like the 3alpha-hydroxy-5alpha/beta-pregnan-steroids can enhance the effectiveness of GABA. The flux of chloride through the receptor is measured as the current induced by the flux with a voltage clamp technique. Dose response curves of the agonists and antagonists can be developed and the current is dependent of the GABA-A receptor activation obtained after the interaction between different dosages of agonists and antagonists. By normalizing the data against a precise current, in the present study 2 μA, the results from different oocytes can be compared and by normalizing the current change against a specific dose, here 10 μM, the different test substances can be compared. The 3alpha-hydroxy-5alpha-pregnan-20-one induced enhancement of GABA mediated chloride flux was set to 1 and obtained by superfusing the GABA-A receptor expressing oocytes with 3 μM GABA+3 μM 3alpha-hydroxy-5alpha-pregnan-20-one in an in vitro bath. The chloride flux was measured as the current induced by the flux of chloride through the GABA-A receptors. The GABA induced chloride flux was set to 1 and obtained by superfusing the GABA-A receptor expressing oocytes in vitro with 30 μM GABA. The inhibiting effect on 3alpha-hydroxy-5alpha-pregnan-20-one induced enhancement of GABA mediated chloride flux by the tested UC-steroids is compared to the inhibiting effect of the same UC-steroids on GABA activation of the GABA-A receptor. In FIG. 1 are the UC-steroids with low GABA antagonism highlighted with an X while the UC-steroids with partial GABA antagonism are highlighted with a black dot ([…]).
# On the figure the result are normalized to the control currents activated by 30 µM GABA or 3 μM GABA+3 μM 3alpha-hydroxy-5alpha-pregnan-20-one. The control current in the absence of steroid antagonists is normalized to […]. Each steroid antagonist is tested at 10 μM. […] The black dot ([…]) highlights the steroid antagonist that inhibits both direct GABA-response (30 μM) and 3alpha-hydroxy-5alpha-pregnan-20-one enhanced GABA response. The labels of the data points are marked with product numbers, whereas the numbering of different substances full name is shown in Table 2 and Table 3.
# The studies on 3alpha-hydroxy-5alpha-pregnan-20-one inhibition were made in the presence of 3 μM GABA+3 μM 3alpha-hydroxy-5alpha-pregnan-20-one. […] Number of cells recorded n=3-10. […]
# T1 sequence (P62813 28-455, stated change not applied): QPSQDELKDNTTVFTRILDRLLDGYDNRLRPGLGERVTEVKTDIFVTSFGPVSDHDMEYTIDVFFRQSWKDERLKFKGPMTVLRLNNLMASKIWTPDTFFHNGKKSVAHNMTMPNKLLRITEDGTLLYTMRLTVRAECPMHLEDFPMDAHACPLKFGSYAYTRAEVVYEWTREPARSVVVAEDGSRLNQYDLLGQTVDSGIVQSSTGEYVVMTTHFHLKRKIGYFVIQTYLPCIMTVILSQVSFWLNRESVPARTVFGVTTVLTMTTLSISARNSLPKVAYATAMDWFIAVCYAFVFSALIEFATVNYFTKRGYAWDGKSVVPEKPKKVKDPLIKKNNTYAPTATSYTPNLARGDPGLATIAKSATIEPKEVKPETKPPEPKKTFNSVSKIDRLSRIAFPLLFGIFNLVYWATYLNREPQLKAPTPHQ
# T1 sequence (P63138 26-474, stated change not applied): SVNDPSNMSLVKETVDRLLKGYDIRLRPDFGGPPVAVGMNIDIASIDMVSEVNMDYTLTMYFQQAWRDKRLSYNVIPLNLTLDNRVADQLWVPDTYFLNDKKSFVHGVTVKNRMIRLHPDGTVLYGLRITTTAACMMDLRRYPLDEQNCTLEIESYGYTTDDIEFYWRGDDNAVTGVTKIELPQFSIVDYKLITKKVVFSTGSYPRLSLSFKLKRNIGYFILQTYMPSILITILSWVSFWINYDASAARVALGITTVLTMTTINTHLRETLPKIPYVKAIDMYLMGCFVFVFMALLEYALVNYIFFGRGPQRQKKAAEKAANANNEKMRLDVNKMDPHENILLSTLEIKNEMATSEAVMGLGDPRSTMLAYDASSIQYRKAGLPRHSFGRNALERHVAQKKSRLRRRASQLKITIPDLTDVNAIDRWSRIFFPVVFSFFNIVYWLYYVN
# T1 sequence (P18508 with tags, fused parts or gaps INS375LLRMFSFK): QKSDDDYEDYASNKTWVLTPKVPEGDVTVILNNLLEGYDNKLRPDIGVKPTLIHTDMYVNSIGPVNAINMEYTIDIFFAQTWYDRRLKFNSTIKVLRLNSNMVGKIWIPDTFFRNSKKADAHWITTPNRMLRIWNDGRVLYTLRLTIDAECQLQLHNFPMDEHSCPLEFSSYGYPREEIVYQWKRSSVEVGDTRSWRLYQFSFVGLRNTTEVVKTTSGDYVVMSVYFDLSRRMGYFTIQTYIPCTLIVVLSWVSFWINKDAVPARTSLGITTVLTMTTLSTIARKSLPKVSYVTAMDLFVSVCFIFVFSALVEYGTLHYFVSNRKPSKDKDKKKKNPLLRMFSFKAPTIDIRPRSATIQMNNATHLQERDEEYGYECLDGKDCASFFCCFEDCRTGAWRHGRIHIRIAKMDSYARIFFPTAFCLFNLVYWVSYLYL
row,SMILES,antagonism against GABA itself (in words)
1,"C[C@@H](O)[C@H]1CC[C@H]2[C@@H]3CC[C@@H]4C[C@@H](O)CC[C@]4(C)[C@H]3CC[C@]12C [UC1013, 5beta-PREGNAN-3beta, 20alpha-DIOL]",low antagonism against GABA it self
2,"CC(=O)[C@H]1CC[C@H]2[C@@H]3CC[C@@H]4C[C@@H](O)CC[C@]4(C)[C@H]3CC[C@]12C [UC1014, 5beta- PREGNAN-3beta-OL-20-ONE]",partial antagonism against the GABA effect
3,"C[C@]12CC[C@H](O)C[C@H]1CC[C@@H]1[C@@H]2CC[C@]2(C)[C@@H](C(=O)CO)CC[C@@H]12 [UC1015, 5beta-PREGNAN-3beta, 21-DIOL-20-ONE]",partial antagonism against the GABA effect
4,"CC(=O)O[C@H]1CC[C@@]2(C)[C@@H](CC[C@@H]3[C@@H]2CC[C@]2(C)[C@@H](C(C)=O)CC[C@@H]32)C1 [UC1012, 5alpha-PREGNAN-3beta-OL-20-ONE ACETATE]",partial antagonism against the GABA effect
5,"CC(O)C1CCC2C3CCC4CC(O)CCC4(C)C3CCC12C (stereo not drawn) [UC1011, 5alpha-PREGNAN-3beta, 20beta-DIOL]",low antagonism against GABA it self
